Where a name gives a salt, the structure may show the parent alone.

The data set is described as follows: Loss of lidocaine HCl on sterilization and storage in glass or plastic containers. The data set is classed as physicochemical. Here is the method:
This composition was packaged in 20-mL cyclic olefin polymer (COP) and polypropylene (PP) syringes; the polypropylene was not non-nucleated. Storage conditions were, as indicated below, either 25° C./60% relative humidity (RH) or 40° C./75% RH.
Testing points were as follows: at the initiation of the stability study, after 1 month, 2 months, 3 months, 6 months, and 12 months.
Additionally, the syringe parts (the plunger and the syringe body) were analyzed for leachables.

In the case of `CCN(CC)CC(=O)Nc1c(C)cccc1C` [lidocaine hydrochloride], the “loss of lidocaine hydrochloride after sterilization (FIG. 9)” value is listed as “small loss” (glass vials, 80 mM phosphate buffer); “no loss” (glass vials, different phosphate buffer molarities except 80 mM); “significant loss” (plastic syringes, increasing with phosphate buffer molarity).
